The structures appear in SMILES notation. ≈ marks a conversion by molar mass, not a printed value.

Data set [1] is described as follows: Half-life in female C57BL/6 mouse at 1 mg/kg, iv measured after 0.083 hrs by LC-MS/MS analysis. Conditions: in vivo.
The nature of data set [2]: Half-life in male Sprague-Dawley rat at 1 mg/kg, iv measured after 8 hrs by LC-MS/MS analysis. Particulars: in vivo.
Data set [3] can be described thus: Volume of distribution at steady state in male Sprague-Dawley rat at 1 mg/kg, iv measured after 8 hrs by LC-MS/MS analysis. Conditions: in vivo.
The next data set can be described thus: in vitro. Particulars: CD-1, mouse, pooled liver microsomes. (In general: Microsomes from liver hold many membrane-bound enzymes, among them those of drug oxidation.)
Data set [4] concerns the target Voltage-gated inwardly rectifying potassium channel KCNH2 (Homo sapiens, UniProt Q12809). Description: Inhibition of human ERG expressed in CHO cells by whole cell patch clamp recording.
Data set [5] in a line: Clearance in female C57BL/6 mouse at 1 mg/kg, iv measured after 0.083 hrs by LC-MS/MS analysis. Conditions: in vivo.
In data set [6] the target is T1, 3-beta-hydroxysteroid-Delta(8),Delta(7)-isomerase (Mus musculus, UniProt P70245).
T1 sequence (P70245 whole entry): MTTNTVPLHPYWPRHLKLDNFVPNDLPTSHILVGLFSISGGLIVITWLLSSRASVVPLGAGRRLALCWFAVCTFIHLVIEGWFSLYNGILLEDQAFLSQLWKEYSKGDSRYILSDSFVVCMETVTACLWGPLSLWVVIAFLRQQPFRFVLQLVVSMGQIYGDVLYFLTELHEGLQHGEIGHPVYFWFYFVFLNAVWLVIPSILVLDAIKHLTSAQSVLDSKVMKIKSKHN
Description: Inhibition of EBP in mouse Oligodendrocyte precursor cell assessed as zymostenol accumulation by GCMS analysis.

A short description of data set [7]: Unbound brain-to-plasma concentration ratio in male Sprague-Dawley rat at 1 mg/kg, iv measured after 8 hrs by LC-MS/MS analysis.
The nature of data set [8]: Unbound brain-to-plasma concentration ratio in female C57BL/6 mouse at 1 mg/kg, iv measured after 8 hrs by LC-MS/MS analysis.
Data set [9] is described as follows: Volume of distribution at steady state in female C57BL/6 mouse at 1 mg/kg, iv measured after 0.083 hrs by LC-MS/MS analysis. Particulars: in vivo.
A short description of data set [10]: Clearance in male Sprague-Dawley rat at 1 mg/kg, iv measured after 8 hrs by LC-MS/MS analysis. Conditions: in vivo.
Data set [11] can be described thus: Dissociation constant, pKa of compound.
Data set [12] addresses 3-beta-hydroxysteroid-Delta(8),Delta(7)-isomerase (Homo sapiens, UniProt Q15125). Description: Inhibition of EBP in human Mesenchymal stem cells assessed as zymostenol accumulation by GCMS analysis.
A short description of data set [13]: in vivo. Particulars: female, C57BL/6, mouse, po, 10 mg/kg.
A short description of data set [14]: in vivo. Particulars: male, Sprague-Dawley, rat, po, 5 mg/kg.
The nature of data set [15]: Protein binding in CD-1 mouse plasma at 5 uM incubated for 6 hrs by equilibrium dialysis based HPLC analysis.
Data set [16] can be described thus: Half-life in female C57BL/6 mouse at 10 mg/kg, po measured after 24 hrs by LC-MS/MS analysis. Conditions: in vivo.
The nature of data set [17]: Unbound brain-to-plasma concentration ratio in female C57BL/6 mouse at 10 mg/kg, po measured after 8 hrs by LC-MS/MS analysis.
A short description of data set [18]: Unbound brain-to-plasma concentration ratio in male Sprague-Dawley rat at 5 mg/kg, po measured after 8 hrs by LC-MS/MS analysis.
The nature of data set [19]: Kinetic solubility of compound in PBS at pH 7.4.
Data set [20] can be described thus: Protein binding in Sprague-Dawley rat plasma at 5 uM incubated for 6 hrs by equilibrium dialysis based HPLC analysis. A general note: Equilibrium dialysis compares concentrations on both sides of a semipermeable membrane.
A further data set deals with BCRP. Description: in vitro. Conditions: dog.
The next data set relates to MDR1. Description: in vitro. Particulars: dog, MDCK-MDR1.
The nature of data set [21]: Protein binding in human plasma at 5 uM incubated for 6 hrs by equilibrium dialysis based HPLC analysis.
A short description of data set [22]: in vivo. Conditions: female, C57BL/6, mouse, brain/plasma, 2 mg/kg.
Description: Unbound brain-to-plasma concentration ratio in female C57BL/6 mouse at 2 mg/kg administered daily for 7 days and measured 8 hrs post last dose
Data set [23] is described as follows: Half-life in male Sprague-Dawley rat at 5 mg/kg, po measured after 8 hrs by LC-MS/MS analysis. Particulars: in vivo.
Data set [24] is described as follows: Unbound brain-to-plasma concentration ratio in female C57BL/6 mouse at 0.2 mg/kg administered daily for 7 days and measured 8 hrs post last dose.

Voltage-gated inwardly rectifying potassium channel KCNH2, sequence (Q12809 whole entry): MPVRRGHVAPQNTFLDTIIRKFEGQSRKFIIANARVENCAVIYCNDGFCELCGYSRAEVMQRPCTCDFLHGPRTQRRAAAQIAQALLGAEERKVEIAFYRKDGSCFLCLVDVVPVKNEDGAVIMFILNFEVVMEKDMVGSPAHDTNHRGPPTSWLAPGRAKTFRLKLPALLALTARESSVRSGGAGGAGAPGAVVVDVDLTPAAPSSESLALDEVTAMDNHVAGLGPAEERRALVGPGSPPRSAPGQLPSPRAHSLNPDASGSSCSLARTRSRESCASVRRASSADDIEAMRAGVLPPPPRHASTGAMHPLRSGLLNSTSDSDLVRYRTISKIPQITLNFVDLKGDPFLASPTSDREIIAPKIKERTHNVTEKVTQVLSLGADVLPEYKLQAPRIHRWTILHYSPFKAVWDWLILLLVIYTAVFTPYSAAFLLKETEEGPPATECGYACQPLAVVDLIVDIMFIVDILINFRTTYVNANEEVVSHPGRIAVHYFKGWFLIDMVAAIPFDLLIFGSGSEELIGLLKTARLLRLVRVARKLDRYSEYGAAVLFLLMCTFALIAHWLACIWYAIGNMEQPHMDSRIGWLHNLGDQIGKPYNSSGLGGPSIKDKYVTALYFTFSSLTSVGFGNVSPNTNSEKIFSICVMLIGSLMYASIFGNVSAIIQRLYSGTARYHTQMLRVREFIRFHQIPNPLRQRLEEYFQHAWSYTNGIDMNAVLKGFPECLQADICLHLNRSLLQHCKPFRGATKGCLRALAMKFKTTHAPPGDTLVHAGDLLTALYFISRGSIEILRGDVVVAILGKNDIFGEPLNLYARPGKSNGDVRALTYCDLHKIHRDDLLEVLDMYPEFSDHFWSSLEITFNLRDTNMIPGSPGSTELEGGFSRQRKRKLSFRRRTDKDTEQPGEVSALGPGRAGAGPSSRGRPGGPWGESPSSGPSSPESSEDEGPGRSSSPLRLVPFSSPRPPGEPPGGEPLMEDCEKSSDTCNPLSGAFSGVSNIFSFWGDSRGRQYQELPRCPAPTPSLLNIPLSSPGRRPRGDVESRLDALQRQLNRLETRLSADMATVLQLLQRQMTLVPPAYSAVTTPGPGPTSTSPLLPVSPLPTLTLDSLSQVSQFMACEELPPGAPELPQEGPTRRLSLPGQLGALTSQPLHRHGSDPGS
3-beta-hydroxysteroid-Delta(8),Delta(7)-isomerase (Homo sapiens, UniProt Q15125), sequence (Q15125 whole entry): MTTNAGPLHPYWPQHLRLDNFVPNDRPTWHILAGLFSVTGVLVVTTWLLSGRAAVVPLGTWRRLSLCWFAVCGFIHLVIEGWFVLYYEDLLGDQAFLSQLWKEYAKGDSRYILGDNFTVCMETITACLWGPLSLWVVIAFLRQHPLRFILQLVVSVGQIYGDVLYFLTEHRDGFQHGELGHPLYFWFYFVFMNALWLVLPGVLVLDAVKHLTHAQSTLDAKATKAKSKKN

A word on the half-life: it is the time in which the quantity being followed falls by half. A lower half-life goes with fast loss. By Vd is commonly meant the apparent volume that relates the amount in the body to the concentration in plasma or blood. A higher Vd goes with wide distribution into tissue. A word on the IC50: it is the concentration that inhibits the measured activity by half. In general, clearance refers to the rate of elimination divided by the concentration. The low end stands for a low capacity for elimination, the high end for a high capacity for elimination. As usually defined, the EC50 is the concentration that produces a half-maximal response. Broadly, the pKa is the pH at which an ionisable group is half protonated. Higher therefore signals a weaker acid or stronger base. Turning to `CCN1C(=O)N(c2ccc(C(F)(F)F)cc2)C(=O)C12CCN(CC1CCOCC1)CC2`, the half-life at […] in data set [1] was 62 h. Also, in data set [2], the half-life at 8 h was 16 h. In data set [3], the Vd at 8 h came to 8.3 L/kg. In addition, the CLhep predicted at 1 h, 1 µM in “in vitro” is 17 mL/min/kg. For the same compound, inhibition in data set [4] was half-maximal at 3000 nM (IC50). This compound also yielded a clearance at […] in data set [5] of 4 mL/min/kg. Also, in data set [6], the EC50 stood at 6 nM. Moreover, the Kp uu at 8 h came to 1.59 in [7] and 0.95 in data set [8]. The compound further gave a distribution volume (Vd) at […] in data set [9] of 7.4 L/kg. Besides, the clearance at 8 h in data set [10] stood at 6.3 mL/min/kg. The compound further returned a pKa in [11] of 7.9.
With `O=C1N(c2ccc(C(F)(F)F)cc2)C(=O)C2(CCN(CC3CCOCC3)CC2)N1C1CC1`, the CLhep predicted at 1 h, 1 µM in “in vitro” is < 14 mL/min/kg.
Take `CCN1C(=O)N(c2cc(Cl)cc(C#N)c2)C(=O)C12CCN(CC1CCOCC1)CC2`: the half-life at […] in data set [1] is 0.8 h. Moreover, the CLhep predicted at 1 h, 1 µM in “in vitro” was 35 mL/min/kg. In addition, the EC50 in data set [6] was 16 nM.
Take `CN1C(=O)N(c2ccc(C(F)(F)F)cc2)C(=O)C12CCN(CC1CCOCC1)CC2`: the CLhep predicted at 1 h, 1 µM in the data set “in vitro” was < 14 mL/min/kg. Moreover, the concentration giving a half-maximal response (EC50) in data set [6] was 20 nM.
For the compound `O=C1N(c2ccc(C(F)(F)F)cc2)CCC12CCN(CC1CCOCC1)CC2`, the CLhep predicted at 1 h, 1 µM in “in vitro” is 18 mL/min/kg. In addition, the figures for the EC50 in data set [6] and in data set [12] were 36 nM and 147 nM, respectively.
Take `CCN1C(=O)N(c2cccc(C3CC3)c2)C(=O)C12CCN(CC1CCOCC1)CC2`: the half-life at […] in data set [1] is 1.2 h. For the same compound, the CLhep predicted at 1 h, 1 µM in the data set “in vitro” was 47 mL/min/kg. Besides, in data set [6], the EC50 was 9 nM.
In turn, `CCN1C(=O)N(c2ccc(C(F)(F)F)cc2)C(=O)C12CCN(C1CCOCC1)CC2` came in with an IC50 in [4] of 4400 nM. Further, the EC50 in [6] came to 364 nM. This compound displayed a pKa in data set [11] of 8.2.
In turn, `CCN1C(=O)N(c2ccc(C)cc2)C(=O)C12CCN(CC1CCOCC1)CC2` showed a half-life at […] in data set [1] of 1.8 h. Also, the CLhep predicted at 1 h, 1 µM in the data set “in vitro” is < 14 mL/min/kg. In addition, in data set [6], the EC50 worked out at 18 nM.
In turn, `CCN1C(=O)N(c2ccc(Cl)cc2)C(=O)C12CCN(CC1CCOCC1)CC2` showed a half-life at […] in [1] of 5.7 h. The CLhep predicted at 1 h, 1 µM in “in vitro” was 25 mL/min/kg.
The term bioavailability denotes dose-corrected exposure relative to a reference, in per cent. A low value points to little systemic uptake. The term fraction unbound denotes free concentration divided by total concentration. High values mean weak binding, low ones extensive binding. The kinetic solubility is the concentration staying in solution when a stock, usually in DMSO, is diluted into the medium. Usually Papp A→B stands for how fast a substance crosses the layer from the apical side. The low end stands for poor permeation, the high end for ready permeation. For the compound `CCN1C(=O)N([C@H]2CC[C@H](C(F)(F)F)CC2)C(=O)C12CCN(CC1CCOCC1)CC2`, the half-life at […] in data set [1] is 5.7 h. Also, in [2], the half-life at 8 h is 12 h. This compound also registered a bioavailability at 24 h in “in vivo [13]” of 47%. The compound also had a Vd at 8 h in data set [3] of 8.3 L/kg. In the data set “in vivo [14]”, this compound displayed a bioavailability at 8 h of 13%. In addition, the fraction unbound at 6 h, 5 µM in [15] was 0.376; in [20], 0.278; in [21] it was 0.296. For the same compound, in data set [16], the half-life at 24 h was 5.3 h. The Kp uu at 8 h in [17] was determined as 0.62; in data set [18] it was 0.58; in data set [7] it was 0.6; in data set [8], 0.56. Further, the CLhep predicted at 1 h, 1 µM in “in vitro” is < 14 mL/min/kg. In data set [4], this compound showed a 50% inhibitory concentration (IC50) of 8000 nM. Besides, the clearance at […] in [5] worked out at 9.9 mL/min/kg. In addition, in [19], the kinetic solubility amounted to 29 µM (≈ 12.9 µg/mL). Also, the results for the Papp A→B in the data set on BCRP and in the data set with MDR1 were 20 ×10⁻⁶ cm/s and 14 ×10⁻⁶ cm/s, respectively. In [9], the Vd at […] came to 5.1 L/kg. In [10], the clearance at 8 h was 9.2 mL/min/kg.
The compound `CCN1C(=O)N(c2ccc(C(F)(F)F)cc2)C(=O)C12CCN(CC1CCS(=O)(=O)CC1)CC2` returned an IC50 in data set [4] of 73000 nM. In addition, the EC50 in [6] amounted to 43 nM. Also, the pKa in data set [11] is 8.1.
Take `O=C1NC2(CCN(CC3CCOCC3)CC2)C(=O)N1c1ccc(C(F)(F)F)cc1`: in the data set “in vitro”, the CLhep predicted at 1 h, 1 µM is < 14 mL/min/kg. Further, the EC50 in data set [6] is 1000 nM.
Compound `CCN1C(=O)N(c2ccc(C(F)(F)F)cc2)C(=O)C12CCN(CC1(F)CCOCC1)CC2` had an IC50 in [4] of 65000 nM. Moreover, in [6], the EC50 turned out to be 68 nM. In addition, in data set [11], the pKa stood at 5.7.
In the case of `CCN1C(=O)N(c2ccc(C(F)(F)F)cc2)C(=O)C12CCN(C(C)C1CCOCC1)CC2` (stereo not given), half-maximal inhibition in data set [4] (IC50) was put at 2900 nM. The EC50 in data set [6] was determined as 41 nM. The compound also returned a pKa in data set [11] of 8.2.
The compound `CCN1C(=O)N(c2ccc(C3CC3)cc2)C(=O)C12CCN(CC1CCOCC1)CC2` gave a half-life at […] in data set [1] of 3.9 h. Moreover, the half-life at 8 h in data set [2] was 4.4 h; in data set [23], 5.1 h. In the data set “in vivo [13]”, the bioavailability at 24 h came to 68%. This compound showed a Vd at 8 h in data set [3] of 6.2 L/kg. This compound yielded a bioavailability at 8 h in “in vivo [14]” of 42%. Moreover, the fraction unbound at 6 h, 5 µM in [15] was 0.364; in data set [20] it was 0.3; in [21], 0.291. In [16], this compound gave a half-life at 24 h of 3.3 h. The Kp uu at 8 h in data set [17] is 0.72; in [18], 0.5; in data set [7] it was 0.74; in data set [8], 0.77. In addition, the CLhep predicted at 1 h, 1 µM in the data set “in vitro” was < 14 mL/min/kg. For the same compound, the IC50 in [4] was 8200 nM. In addition, the Kp uu at 176 h is 0.6 in “in vivo [22]” and 1.7 in data set [24]. The compound further came in with a clearance at […] in data set [5] of 17 mL/min/kg. Moreover, the EC50 in [6] came to 8 nM. For the same compound, the kinetic solubility in [19] was 64 µM (≈ 26.3 µg/mL). In addition, the Papp A→B came out at 20 ×10⁻⁶ cm/s with BCRP and 15 ×10⁻⁶ cm/s in the data set with MDR1. The compound also returned a Vd at […] in data set [9] of 5.2 L/kg. The clearance at 8 h in [10] worked out at 17 mL/min/kg.
As for `CC(C)N1C(=O)N(c2ccc(C(F)(F)F)cc2)C(=O)C12CCN(CC1CCOCC1)CC2`, in the data set “in vitro”, the CLhep predicted at 1 h, 1 µM is < 14 mL/min/kg. The EC50 in data set [6] turned out to be 315 nM; in data set [12] it was 669 nM.
Take `CCN1C(=O)N(c2ccc(C(F)(F)F)cc2)C(=O)C12CCN(C1CCCOCC1)CC2` (stereo not given): half-maximal inhibition in data set [4] (IC50) was put at 850 nM. Besides, the EC50 in data set [6] amounted to 95 nM. The compound also displayed a pKa in [11] of 8.1.

Source of the values: ChEMBL document CHEMBL5518221, “Discovery and Optimization of Selective Brain-Penetrant EBP Inhibitors that Enhance Oligodendrocyte Formation” (J Med Chem, 2024).
